The test system of data set [1] is Escherichia coli. Nature of the data set: Inhibition of BacLight Green labeled Escherichia coli adherence to human UEC after 1 hr by flow cytometry analysis. The format is functional, organism-based. In general terms: Flow cytometry measures light scatter and fluorescence of single cells or particles in a stream.
For data set [2], the system named is Escherichia coli. Nature of the data set: Bactericidal activity against BacLight Green labeled Escherichia coli up to 30 ug/ml. The format is ADME, organism-based.
In data set [3] the test system is Escherichia coli. Nature of the data set: Induction of morphological changes in BacLight Green labeled Escherichia coli assessed as alteration of fimbriae structure and distribution by fusing fimbriae at 10 ug/ml after 1 hr by transmission electron microscopy analysis. The format is functional, organism-based.
Data set [4] relates to Escherichia coli. As to the kind of experiment: Inhibition of BacLight Green labeled Escherichia coli adherence to human UEC at 10 ug/ml after 1 hr by scanning electron microscopy analysis. The format is functional, organism-based.
Data set [5] relates to Escherichia coli. Nature of the data set: Inhibition of BacLight Green labeled Escherichia coli adherence to human UEC at 0.1 ug/ml after 1 hr by flow cytometry analysis. The format is functional, organism-based.
Data set [6] concerns Escherichia coli. Nature of the data set: Inhibition of BacLight Green labeled Escherichia coli adherence to human UEC at 1 ug/ml after 1 hr by flow cytometry analysis. The format is functional, organism-based.
Data set [7] concerns Escherichia coli. As to the kind of experiment: Induction of morphological changes in BacLight Green labeled Escherichia coli assessed as decrease of number of fimbriae at 50 ug/ml after 1 hr by transmission electron microscopy analysis. The format is functional, organism-based.
Data set [8] concerns Escherichia coli. Nature of the data set: Inhibition of BacLight Green labeled Escherichia coli adherence to human UEC at 50 ug/ml after 1 hr by scanning electron microscopy analysis. The format is functional, organism-based.

Values after ≈ are worked out from the molar mass of the structure shown. Active and inactive are the calls of the source. The calls are words filed in the database; no cut-off is given here.

By IC50 is commonly meant the concentration that gives 50% inhibition. Low values mean greater potency, high ones weaker potency.

Consider `O=C(/C=C/c1ccc(O)c(O)c1)O[C@@H]1C[C@](O)(C(=O)O)C[C@@H](O)[C@H]1O` [CHLOROGENIC ACID], for which the inhibition result in data set [1] is “inactive”. Besides, the Activity entry in data set [2] was “Non-toxic”.
For the molecule `O=c1c(O)c(-c2cc(O)c(O)c(O)c2)oc2cc(O)cc(O)c12` [MYRICETIN], in data set [3], the result was Active. In addition, in data set [1], the IC50 is 0.88 µg/mL (≈ 2.77 µM) and the inhibition entry is “Dose-dependent effect”. For the same molecule, the inhibition result in data set [4] is “Active”. The Activity result in data set [2] is given as “Non-toxic”. In addition, in data set [5], the inhibition result was “Active”.
As for `Oc1cc(O)c2c(c1)O[C@@]1(c3ccc(O)c(O)c3)Oc3cc(O)c4c(c3[C@@H]2[C@H]1O)O[C@H](c1ccc(O)c(O)c1)[C@H](O)C4` [PROANTHOCYANIDIN A2], in data set [1], the inhibition entry is “inactive”. Besides, the Activity entry in data set [2] is on record as “Non-toxic”.
`Oc1cc(O)c2c(c1)O[C@H](c1ccc(O)c(O)c1)[C@H](O)[C@H]2c1c(O)cc(O)c2c1O[C@H](c1ccc(O)c(O)c1)[C@@H](O)C2` [PROCYANIDIN B1]: the inhibition result in data set [1] was “Dose-dependent effect”. For the same molecule, in data set [2], the Activity result was “Non-toxic”. Besides, the inhibition result in data set [6] was “Active”.
As for `Oc1cc(O)c2c(c1)O[C@H](c1ccc(O)c(O)c1)[C@H](O)[C@H]2c1c(O)cc(O)c2c1O[C@H](c1ccc(O)c(O)c1)[C@H](O)C2` [PROCYANIDIN B2], the inhibition result in data set [1] was “Dose-dependent effect”. In data set [7], the result was Active. Besides, the Activity entry in data set [2] is reported as “Non-toxic”. Moreover, the inhibition entry in data set [8] and in data set [6] was “Active” throughout.
Regarding `Oc1cc(O)c2c(c1)O[C@H](c1ccc(O)c(O)c1)[C@H](O)[C@H]2c1c(O)cc(O)c2c1O[C@H](c1ccc(O)c(O)c1)[C@H](O)[C@H]2c1c(O)cc(O)c2c1O[C@H](c1ccc(O)c(O)c1)[C@H](O)C2` [PROCYANIDIN C1], the inhibition result in data set [1] is “Dose-dependent effect”. For the same molecule, in data set [2], the Activity result is “Non-toxic”. Also, in data set [6], the inhibition entry was “Active”.
In the case of `O=c1c(O)c(-c2ccc(O)c(O)c2)oc2cc(O)cc(O)c12` [QUERCETIN], in data set [1], it took 3.8 µg/mL (≈ 12.6 µM) to reach half-maximal inhibition (IC50) and the inhibition result is “Dose-dependent effect”. Moreover, the Activity result in data set [2] is “Non-toxic”. For the same molecule, the inhibition entry in data set [5] was “Active”.

Values taken from ChEMBL document CHEMBL3286152, “Development of a fluorometric microplate antiadhesion assay using uropathogenic Escherichia coli and human uroepithelial cells” (J Nat Prod, 2014).
